Experimental data taken from patent US20200230118A1, “USE OF BERBERINE OR ACTIVE METABOLITE THEREOF IN PREPARATION OF DRUG FOR PREVENTING AND/OR TREATING PHENYLKETONURIA” (Institute of Materia Medica, Chinese Academy of Medical …, priority 2017, published 2020).

How the values were obtained:
[1] = system: α-methylphenylalanine induced phenylketonuria model of suckling rats; test: Therapeutic effect in α-methylphenylalanine induced phenylketonuria model of suckling rats; type: in vivo, SD suckling rats
Experimental: The phenylpyruvate concentration and ratio of phenylalanine/tyrosine in blood are the key indicators for evaluating the therapeutic effect in phenylketonuria model of suckling rats.
SD suckling rats (1 day old) were purchased from Beijing Vital River Laboratory Animal Technology Co., Ltd. All the animals and female rats were fed in SPF environment (21±2° C., 12-hour photoperiod) and had free access to food and water during the experiment. Berberine was purchased from the J&K Technology Co. LTD (Beijing, China). Phenylpyruvate, phenylalanine, and tyrosine were purchased from Solarbio Science&Technology Co. LTD (Beijing, China). α-Methylphenylalanine was purchased from Sinuokai Technology Co. LTD (Nanjing, China).
High-performance liquid chromatography-triple quadrupole tandem mass spectrometry (LC-MS/MS 8050, Shimadzu Corporation, Japan) was used to quantitatively determine the concentration of dopa, phenylalanine, tyrosine, and phenylpyruvate. Alltima C18 (5 μm, 4.6×150 mm) chromatography column was used in the experiment, and the column temperature was maintained at 40° C. The mobile phase to measure L-dopa was water-formic acid (100: 0.2 v/v) and acetonitrile. The condition of gradient elution was as follows (A: B, 0 min, 90:10; 2.5 min, 80:20; 2.51 min, 5:95; 5 min, 5:95; 5.01 min, 90:10; 8 min 90:10). The flow rate was 0.8 mL/min. Multi-reaction monitoring mode was used for quantization, and the quantitative ion pair of dopa was 198.15→[…] (m/z). Phenylalanine, tyrosine, and phenylpyruvate level were determined using Alltima C18 (5 μm, 4.6×150 mm) chromatography column at column temperature of 40° C. The mobile phase contained water-formic acid (100:0.1 v/v) and methanol. The condition of gradient elution was as follows (A: B, 0 min, 90:10; 1 min, 90:10; 1.01 min, 60:40; 5 min, 5:95; 7 min, 5:95; 7.01 min 90:10; 10 min 90:10). The flow rate was 0.8 mL/min. Multi-reaction monitoring mode was used for quantization. The quantitative ion pair was: phenylalanine, 165.85→120.20; tyrosine, 182.00→136.10; phenylpyruvate, 163.00→91.00.
Experimental design: The animals were divided into 6 groups, including: the normal control group, the model group, the low-dose of oral berberine treated model group, the high-dose of oral berberine treated model group, the intraperitoneal berberine treated model group, and the oral berberine treated pseudo-germ-free model group. The establishment of model started at 2 days old of SD suckling rats, which were administrated for 10 days, and then they were treated for 7 days.
(1) Normal control group: normal saline (s.c.).
(2) Model group: a-methylphenylalanine (s.c. 50 mg/kg/d), and phenylalanine (s.c. 200 mg/kg/d);
(3) Low-dose of oral berberine treated model group: α-methylphenylalanine (s.c. 50 mg/kg/d), phenylalanine (s.c. 200 mg/kg/d), berberine (oral, 100 mg/kg/d);
(4) High-dose of oral berberine treated model group: α-methylphenylalanine (s.c. 50 mg/kg/d), phenylalanine (s.c. 200 mg/kg/d), berberine (oral, 200 mg/kg/d);
(5) Intraperitoneal berberine treated model group: α-methylphenylalanine (s.c. 50 mg/kg/d), phenylalanine (s.c. 200 mg/kg/d), berberine (i.p. 20 mg/kg/d);
(6) Oral berberine treated pseudo-germ-free model group: α-methylphenylalanine (s.c. 50 mg/kg/d), phenylalanine (s.c. 200 mg/kg/d), berberine (oral, 200 mg/kg/d); Antibiotic dose: cefadroxil (100 mg/kg/d), oxytetracycline (300 mg/kg/d), erythromycin (300 mg/kg/d).

ICR mice [2] = test: Effect of dihydroberberine on blood phenylpyruvate and tyrosine in ICR mice; type: in vivo
Experimental: The concentrations of phenylpyruvate and tyrosine in blood are the key indicators to evaluate the therapeutic effect for phenylketonuria.
ICR mice (male, 20±2 g) were purchased from Beijing Vital River Laboratory Animal Technology Co., Ltd. All the animals were fed in SPF environment (21±2° C., 12-hour photoperiod) and had free access to food and water during the experiment. Berberine was purchased from the J&K Technology Co. LTD (Beijing, China). Dihydroberberine was purchased from the Mansite Biology & Technology Co. LTD (Chengdu, China). Phenylpyruvate, phenylalanine, and tyrosine were purchased from Solarbio Science&Technology Co. LTD (Beijing, China).
Experimental design: The animals were divided into three groups, including the control group, the 200 mg/kg dihydroberberine oral treated group at 12 h, the 200 mg/kg dihydroberberine oral treated group at 24 h.
(§1) (1) The control group: saline 0.2 mL (oral);
(2) The 100 mg/kg dihydroberberine singe oral treated group at 12 h: 100 mg/kg […] (oral);
(3) The 100 mg/kg dihydroberberine singe oral treated group at 24 h: 100 mg/kg […] (oral).

ICR mice [3] = test: Effect of jatrorrhizine on blood phenylpyruvate and tyrosine in ICR mice; type: in vivo
Experimental: The concentrations of phenylpyruvate and tyrosine in blood are the key indicators to evaluate the therapeutic effect for phenylketonuria in children.
ICR mice (male, 20±2 g) were purchased from Beijing Vital River Laboratory Animal Technology Co., Ltd. All the animals were fed in SPF environment (21±2° C., 12-hour photoperiod) and had free access to food and water during the experiment. Berberine was purchased from the J&K Technology Co. LTD (Beijing, China). Phenylpyruvate, phenylalanine, and tyrosine were purchased from Solarbio Science&Technology Co. LTD (Beijing, China).
Experimental design: The animals were divided into three groups, including the control group, the 200 mg/kg jatrorrhizine oral treated group at 12 h, the 200 mg/kg jatrorrhizine oral treated group at 24 h.
as §1
(2) The 200 mg/kg jatrorrhizine singe oral treated group at 12 h: 200 mg/kg jatrorrhizine (oral);
(3) The 200 mg/kg jatrorrhizine single oral treated group at 24 h: 200 mg/kg jatrorrhizine (oral).

## COc1ccc2cc3[n+](cc2c1OC)CCc1cc2c(cc1-3)OCO2 [berberine]
[1]; intraperitoneal injection 20 mg/kg/d (FIG. 2)
  Phenylalanine/tyrosine ratio in blood: not significantly changed
[1]; intraperitoneal injection 20 mg/kg/d (FIG. 3)
  Concentration of dopa in brain: not significantly changed
[1]; intraperitoneal injection 20 mg/kg/d (FIG. 4)
  Concentration of dopamine in brain: not significantly changed
[1]; intraperitoneal injection 20 mg/kg/d, 7 days (FIG. 1)
  Phenylpyruvate level in blood: not significantly changed
[1]; oral 100 and 200 mg/kg/d for 7 days, vs model group, dose-dependent (FIG. 1)
  Phenylpyruvate level in blood: significantly decreased
[1]; oral 100 and 200 mg/kg/d, vs model group, dose-dependent (FIG. 2)
  Phenylalanine/tyrosine ratio in blood: significantly decreased
[1]; oral 100 and 200 mg/kg/d, vs model group, dose-dependent (FIG. 3)
  Concentration of dopa in brain: significantly increased
[1]; oral 100 and 200 mg/kg/d, vs model group, dose-dependent (FIG. 4)
  Concentration of dopamine in brain: significantly increased
[1]; oral administration
  Level of tyrosine in blood: increase
[1]; pseudo-germ-free (antibiotic treated) model, oral 200 mg/kg/d (FIG. 1)
  Phenylpyruvate level in blood: not significantly changed
[1]; pseudo-germ-free model, oral 200 mg/kg/d (FIG. 2)
  Phenylalanine/tyrosine ratio in blood: not significantly changed
[1]; pseudo-germ-free model, oral 200 mg/kg/d (FIG. 3)
  Concentration of dopa in brain: not significantly changed
[1]; pseudo-germ-free model, oral 200 mg/kg/d (FIG. 4)
  Concentration of dopamine in brain: not significantly changed

## COc1ccc2c(c1OC)CN1CCc3cc4c(cc3C1=C2)OCO4 [dihydroberberine]
ICR mice [2]; oral administration
  Ratio of phenylalanine/tyrosine in blood: reduce
ICR mice [2]; single oral 100 mg/kg (200 mg/kg), 12 h and 24 h, vs control (FIG. 7)
  Tyrosine level in blood: significantly increased
ICR mice [2]; single oral 100 mg/kg (200 mg/kg), 12 h and 24 h, vs control (FIG. 8)
  Phenylpyruvate level in blood: significantly decreased

## COc1cc2c(cc1O)CC[n+]1cc3c(OC)c(OC)ccc3cc1-2 [jatrorrhizine]
ICR mice [3]; oral administration
  Ratio of phenylalanine/tyrosine in blood: reduce
ICR mice [3]; single oral 200 mg/kg, 12 h and 24 h, vs control (FIG. 5)
  Tyrosine level in blood: significantly increased
ICR mice [3]; single oral 200 mg/kg, 12 h and 24 h, vs control (FIG. 6)
  Phenylpyruvate level in blood: significantly decreased
